Results published in patent publication US8258186B2, “Pharmaceutical for oral delivery comprising MGBG” (Pathologica, LLC, priority 2009, dated 2012).

Key:
[1] = Multi-dose rat pharmacokinetic and tolerability study; assay type: in vivo, Sprague Dawley rats; conditions: for AUC / CL/F / fold increase in mean AUCall compared to Study Day 1 / AUC(0-t) / Cmax / Tmax: male, Sprague Dawley; for fold increase in mean AUCall compared to Study Day 1: 7 days
Protocol: The purpose of this study was to determine the pharmacokinetic (PK) properties and tolerability of MGBG in rats. Additionally, recovery from any toxic effects was assessed after a seven day non-dosing period.
Three per group of male Sprague Dawley (CD® MS, Charles River) aged 7-9 weeks and weighing 222.7-252.0 g were administered by oral (PO) gavage, twice daily, at 10, 20, or 30 mg/kg/dose (20, 40, or 60 mg/kg/day) for seven consecutive days. A washout period of seven days followed. Collection of approximately 200 μL of whole blood was collected from the tail vein of all animals in Groups 5, 6, and 7 were bled at six (Day 1), seven (Day 7), or one (Days 9 through 15) time point(s), respectively. Whole blood samples were collected in a lithium heparin microtainer and processed to plasma by centrifugation. Plasma was frozen at −70° C. Pharmacokinetic analyses were performed on the individual animal plasma concentration versus time data for MGBG using WinNonlin (linear trapezoidal rule for AUC calculations). Nominal dose values and sampling times were used for calculations. For Study Day 7, the reported values for MGBG concentrations at time zero were used in the calculations of AUC. Study Day 1 disposition parameters were not reported due to insufficient terminal phase data to adequately characterize these parameters.
On Study Day 7, evidence of dose-dependent dispositions for Cl/Fobs and elimination half-life were observed as mean parameter values for Cl/Fobs and elimination half-life increased and decreased, respectively, with increasing dose levels.
Based on the findings of this exploratory study, the no observable adverse effect level (NOAEL) for MGBG administered by PO gavage twice daily for seven consecutive days to male Sprague Dawley rats is 30 mg/kg/dose (60 mg/kg/day).

[2] = Mouse single-dose pharmacokinetics; assay type: in vivo, DBA/1 mice; conditions: for AUC / Cmax: plasma
Protocol: Twenty-four male DBA/1 mice weighing 19.5-24.7 g and aged 7-9 weeks administered the test article, MGBG, as either a single bolus intravenous dose via a lateral tail vein of 1 mg/kg (Group 1, n=12) or as a single oral gavage dose of 10 mg/kg (Group 2, n=12). Each dose group consisted of 4 cohorts of 3 animals each. Group 1 was sampled at 5, 15, and 30 minutes after dosing; and 1, 2, 4, 8, and 24 hours after dosing. Group 2 was sampled at 1, 2, 4, 8, 12, 24, and 36 hours after dosing. Starting with the first time point, a new cohort was sampled at each successive time point up to the 1-hour (Group 1) or 12-hour (Group 2) time point. The order of sampling among the cohorts was repeated for the subsequent time points (some cohorts may have been bled only once). The second bleed for each cohort was terminal. Animals were sacrificed via CO2 inhalation anaesthesia after final blood collection.
The samples were centrifuged under refrigerated conditions following completion of sample collection at each interval. The resulting plasma was separated and stored frozen at approximately −70° C. until analysis. Analysis was performed by LC/MS/MS. Pharmacokinetic analyses were performed on the mean MGBG plasma concentration versus time data using the non-compartmental approach (linear trapezoidal rule for AUC calculations). The WinNonlin sparse sampling tool was used for PK calculations.

[3] = male, DBA/1, plasma, single bolus IV 1 mg/kg, mean
[4] = male, DBA/1, plasma, single oral gavage 10 mg/kg, mean
[5] = male, DBA/1, single bolus IV 1 mg/kg, mean
[6] = male, DBA/1, single oral gavage 10 mg/kg, mean

Question: With `CC(/C=N/NC(=N)N)=N\NC(=N)N` [MGBG, 1,1′[methylethanediylidene]dinitrilodiguanidine] as the compound, how does the “increase of systemic exposure (Cmax and AUCall) with increasing dose” value ([1]; in vivo) read?
Answer: slightly less than dose-proportional

Question: And the “hematology parameters versus control group” value ([1]; in vivo, 60 mg/kg/day)?
Answer: lower reticulocyte count and percentage

Question: What about the “serum chemistry parameters versus control group” value ([1]; in vivo, 60 mg/kg/day) of the same compound?
Answer: osmolality and electrolyte changes consistent with slight dehydration

Question: And the NOAEL at 7 days ([1]; in vivo, male Sprague Dawley rats, PO gavage twice daily, seven consecutive days, read-out: no observable adverse effect level (NOAEL))?
Answer: 60 mg/kg/day

Question: What about the “systemic exposure, plasma Day 1 and Day 7” value ([1]; in vivo, po) of the same compound?
Answer: systemic exposure to the test article at all time points

Question: And the AUC ([1]; in vivo, po, 20 mg/kg/day)?
Answer: 7930 ng·h/mL

Question: What about the CL/F ([1]; in vivo, po, 20 mg/kg/day) of the same compound?
Answer: 24.3 mL/min/kg

Question: And the “fold increase in mean AUCall compared to Study Day 1” value (from here on “fold increase in mean AUCall”) ([1]; in vivo, po, 20 mg/kg/day)?
Answer: 3.77 fold

Question: What about the AUC(0-t) ([1]; in vivo, po, 20 mg/kg/day, AUC0-12) of the same compound?
Answer: 773 ng·h/mL

Question: And the AUC(0-t) ([1]; in vivo, po, 20 mg/kg/day, AUC0-24)?
Answer: 1750 ng·h/mL

Question: What about the Cmax ([1]; in vivo, po, 20 mg/kg/day) of the same compound?
Answer: 124 ng/mL

Question: And the Tmax ([1]; in vivo, po, 20 mg/kg/day, Tmax)?
Answer: 10 h

Question: And the AUC ([1]; in vivo, po, 40 mg/kg/day)?
Answer: 13700 ng·h/mL

Question: What about the CL/F ([1]; in vivo, po, 40 mg/kg/day) of the same compound?
Answer: 28.2 mL/min/kg

Question: And the “fold increase in mean AUCall” value ([1]; in vivo, po, 40 mg/kg/day)?
Answer: 4.03 fold

Question: What about the AUC(0-t) ([1]; in vivo, po, 40 mg/kg/day, AUC0-12) of the same compound?
Answer: 1380 ng·h/mL

Question: And the AUC(0-t) ([1]; in vivo, po, 40 mg/kg/day, AUC0-24)?
Answer: 2980 ng·h/mL

Question: And the Cmax ([1]; in vivo, po, 40 mg/kg/day)?
Answer: 175 ng/mL

Question: What about the Tmax ([1]; in vivo, po, 40 mg/kg/day, Tmax) of the same compound?
Answer: 7.33 h

Question: And the AUC ([1]; in vivo, po, 60 mg/kg/day)?
Answer: 17100 ng·h/mL

Question: What about the CL/F ([1]; in vivo, po, 60 mg/kg/day) of the same compound?
Answer: 35.8 mL/min/kg

Question: And the “fold increase in mean AUCall” value ([1]; in vivo, po, 60 mg/kg/day)?
Answer: 3.68 fold

Question: What about the AUC(0-t) ([1]; in vivo, po, 60 mg/kg/day, AUC0-12) of the same compound?
Answer: 2170 ng·h/mL

Question: What about the AUC(0-t) ([1]; in vivo, po, 60 mg/kg/day, AUC0-24) of the same compound?
Answer: 4380 ng·h/mL

Question: What about the Cmax ([1]; in vivo, po, 60 mg/kg/day) of the same compound?
Answer: 296 ng/mL

Question: And the Tmax ([1]; in vivo, po, Tmax values over the dose range evaluated)?
Answer: 3.33 to 14 h

Question: What about the “gross or microscopic lesions at terminal sacrifice” value ([1]; test article-treated animals) of the same compound?
Answer: No gross or microscopic lesions were observed

Question: What about the “systemic plasma MGBG exposure” value ([2]; following IV and PO administration) of the same compound?
Answer: observed at all collected plasma time points

Question: And the clinical findings ([2]; following dosing)?
Answer: Abnormal clinical findings were not noted

Question: And the bioavailability ([2]; male, DBA/1, plasma, oral 10 mg/kg vs IV 1 mg/kg)?
Answer: 44.3%

Question: And the Tmax [2, 3]?
Answer: 0.083 h

Question: And the half-life [2, 3]?
Answer: 13 h

Question: And the Tmax [2, 4]?
Answer: 1 h

Question: And the half-life [2, 4]?
Answer: 11.8 h

Question: And the AUC [2, 5]?
Answer: 336 ng·h/mL

Question: And the Cmax [2, 5]?
Answer: 181 ng/mL

Question: And the AUC [2, 6]?
Answer: 1420 ng·h/mL

Question: What about the Cmax [2, 6] of the same compound?
Answer: 106 ng/mL

Question: And the Clobs ([2]; single bolus IV 1 mg/kg, mean)?
Answer: 49.6 mL/min/kg

Question: And the VSSobs ([2]; single bolus IV 1 mg/kg, mean)?
Answer: 38.3 L/kg

Question: What about the Clobs ([2]; single oral gavage 10 mg/kg, mean) of the same compound?
Answer: 6.68 mL/min/kg
